Experimental findings from PubChem BioAssay AID1996 are described below.

≈ marks a conversion by molar mass, not a printed value.

For this data set the following is noted: buffer; pH 7.4; 200.0 µM.
In general, solubility (kinetic) refers to solubility judged after dilution from a stock solution rather than from solid. Turning to `CCN(CC)c1ccc(NC(=S)NCC2CCCO2)cc1` (configuration not stated), the kinetic solubility is 34.1 µg/mL (≈ 111 µM).

`FC(F)(F)c1ccc(NC2=NCCCS2)cc1`: the kinetic solubility was found to be 15.6 µg/mL (≈ 59.9 µM).

Regarding `Cc1csc(Nc2ccc(Cl)cc2)n1`, the kinetic solubility turned out to be 10.5 µg/mL (≈ 46.7 µM).

For `CCCCN1C(=O)N(C)C2NC(=S)NC21` (configuration not stated), the solubility (kinetic) is greater than 34.2 µg/mL.

In turn, `CC(C)NC(=O)COc1ccc(S(=O)(=O)N2CCCC2)cc1` gave a kinetic solubility greater than 49 µg/mL.

For the compound `O=C(Nc1ccccc1)Nc1ccccc1C(=O)NCCCN1CCOCC1`, the kinetic solubility stood at 46.3 µg/mL (≈ 121 µM).

As to `CC(C)(C)NC(=O)c1cc2c(ccc3ccccc32)oc1=O`, the kinetic solubility worked out at 2.5 µg/mL (≈ 8.46 µM).

In turn, `CCOC(=O)Cn1c(=NC(=O)C(C)C)sc2c(C)cc(C)cc21` showed a kinetic solubility of less than 0.4 µg/mL.

In turn, `OC(COc1ccc(Cl)cc1)CN1CCN(c2ccccn2)CC1` (configuration not stated) registered a kinetic solubility of 33.8 µg/mL (≈ 97.2 µM).

As for `Brc1ccc(OCCCOc2cccc3cccnc23)cc1`, the solubility (kinetic) is less than 0.8 µg/mL.

The compound `CN1C2CCC1CC(NS(=O)(=O)c1ccc(C#N)cc1)C2` (configuration not stated) had a kinetic solubility of 45.6 µg/mL (≈ 149 µM).

In turn, `COc1ccccc1CNCCc1ccc(F)cc1.O=C(O)C(=O)O` had a kinetic solubility greater than 52.4 µg/mL.

Regarding `COc1ccc(N2C(=O)C3CCCN3C2=S)cc1` (configuration not stated), the kinetic solubility was greater than 39.3 µg/mL.

Compound `Cc1ccccc1NC(=O)Cc1nc(COC(=O)c2ccc(NC(N)=O)cc2)cs1` gave a solubility (kinetic) of 17.6 µg/mL (≈ 41.5 µM).

On to `COc1cccc2cc(C(=O)NCCN3CCOCC3)oc12`, for which the solubility (kinetic) is greater than 45.7 µg/mL.

Compound `CN(C)C=NC(=O)c1cc(C(=O)c2ccc(F)cc2)c[nH]1` registered a solubility (kinetic) greater than 43.1 µg/mL.

`CCNS(=O)(=O)c1ccc(CCC(=O)NCc2ccncc2)cc1` gave a solubility (kinetic) greater than 52.1 µg/mL.

`CCS(=O)(=O)N1CCC(N2CCC(C)CC2)CC1.O=C(O)C(=O)O` came in with a kinetic solubility of 53.3 µg/mL.

In the case of `COc1ccc(CN2CCC(Cc3ccccc3)CC2)c(C)c1C`, the kinetic solubility came to 17 µg/mL (≈ 52.6 µM).

For the compound `CCC(C)(NC(=O)c1ccccn1)C(=O)NC1CCCC1` (configuration not stated), the kinetic solubility is greater than 43.4 µg/mL.

The compound `CN(Cc1ccccc1)C(=O)CC(=O)N(C)Cc1ccccc1` came in with a kinetic solubility greater than 46.6 µg/mL.

Compound `COc1ccc(C2C(C(C)=O)=C(C)Nc3ncnn32)c(OC)c1OC` (configuration not stated) yielded a kinetic solubility greater than 51.7 µg/mL.

In turn, `Nc1ncnc2c1ncn2Cc1ccccc1` came in with a kinetic solubility greater than 33.8 µg/mL.

As for `CCCNC(=S)N1CCC(NC(=O)Nc2ccc(C)cc2)CC1`, the solubility (kinetic) was determined as 4.9 µg/mL (≈ 14.6 µM).

`Cc1ccccc1NC(=O)C1C2CCCCC21` (configuration not stated) showed a solubility (kinetic) of 3.4 µg/mL (≈ 14.8 µM). This solubility kinetic and that of the compound before are within 1.5-fold of each other.

`CC(C)(C)C(=O)N1CCN(c2ccc([N+](=O)[O-])cc2-n2cccc2)CC1` registered a solubility (kinetic) of 1.4 µg/mL (≈ 3.93 µM).

As for `CCOC(=O)c1c(C)[nH]c(C)c1C(=O)COC(=O)CSc1ccc(C)cc1`, the solubility (kinetic) is greater than 58.4 µg/mL.

In turn, `O=c1oc(-c2cccc([N+](=O)[O-])c2)nc2ccccc12` gave a solubility (kinetic) of 3.2 µg/mL (≈ 11.9 µM).

Take `Cc1ccc(C)c(NC(=O)CSc2c(C)n[nH]c2C)c1`: the kinetic solubility was greater than 43.4 µg/mL.

The compound `Cc1csc(NC(=O)c2ccc(=O)[nH]c2)n1` showed a kinetic solubility greater than 35.3 µg/mL.

As for `Cc1cccc(NC(=S)N(C)C)c1C`, the kinetic solubility is greater than 31.2 µg/mL.

`N/C(CSc1ncccc1C(F)(F)F)=N\O` registered a kinetic solubility greater than 37.7 µg/mL.

Consider `c1ccc(-c2csc(Nc3cccnc3)n2)cc1`, for which the solubility (kinetic) turned out to be 2.2 µg/mL (≈ 8.68 µM).

Regarding `COc1cc2c(cc1OC)C(c1ccccc1C(F)(F)F)CC(=O)N2` (configuration not stated), the kinetic solubility was less than 0.8 µg/mL.

Regarding `Cc1ccc(C(=O)Nc2ccc(S(=O)(=O)N3CCCC3)cc2)cc1`, the kinetic solubility came to 1.6 µg/mL (≈ 4.65 µM).

`O=C(NCC1CCCO1)c1ccc(-c2cccc(C(F)(F)F)c2)o1` (configuration not stated) returned a kinetic solubility of 38.4 µg/mL (≈ 113 µM). Against the preceding compound, the solubility kinetic is about 24-fold higher.

Compound `COc1ccc(NC(=O)COC(=O)c2cccn2C)cc1S(=O)(=O)N1CCCCC1` registered a solubility (kinetic) of 32.6 µg/mL (≈ 74.9 µM). This solubility kinetic and that of the compound before are within 1.5-fold of each other.

`Cc1ccc2c(c1)N(CC(=O)N1CCCCC1)C(=O)CO2` had a kinetic solubility greater than 43.3 µg/mL.

On to `Cc1ccc(NC(=O)CCNC(=O)c2ccccc2)cc1F`, for which the kinetic solubility turned out to be 2.9 µg/mL (≈ 9.66 µM).

The compound `Cc1ccc(NC(=O)c2ccc3c(c2)NC(=O)CS3)nc1` showed a kinetic solubility of 5.3 µg/mL (≈ 17.7 µM).

`CC(=O)c1cc(F)ccc1OCC(=O)N1CCCc2ccccc21` came in with a solubility (kinetic) of 44.1 µg/mL (≈ 135 µM). This solubility kinetic lies about 8.3-fold higher than the previous one.

As to `Cc1ccc(S(=O)(=O)N2CCOCC2)cc1C(=O)N1CCCC1`, the solubility (kinetic) is greater than 50.8 µg/mL.

Turning to `COc1ccc(OC(C)C(=O)NC2CCCCCC2)cc1` (configuration not stated), the solubility (kinetic) came to 40 µg/mL (≈ 137 µM).

`COc1ccc2c(c1)CCC/C2=N\OC(=O)c1ccccc1F`: the kinetic solubility was less than 0.7 µg/mL.

Take `Nc1nc(-c2ccc(Oc3ccccc3)cc2)c(CC(=O)O)s1`: the kinetic solubility was greater than 49 µg/mL.

On to `CC(C)(C)c1ccc(C(=O)NC(=S)NCc2ccco2)cc1`, for which the kinetic solubility was determined as 0.6 µg/mL (≈ 1.9 µM).

The compound `CCN1CCN(c2ccc(NC(=O)COc3ccc(Cl)cc3C)cc2)CC1` displayed a solubility (kinetic) of 5.1 µg/mL (≈ 13.1 µM).

For the compound `Cc1sc2nc(-c3cccnc3)[nH]c(=O)c2c1-c1ccccc1`, the kinetic solubility turned out to be 2.1 µg/mL (≈ 6.58 µM).

In turn, `COc1ccc([N+](=O)[O-])cc1NC(=O)C(C)OC(=O)C1CCCC1` (configuration not stated) returned a solubility (kinetic) of 12 µg/mL (≈ 35.7 µM).

For `COC(=O)C1=C(C)N(C)C(=S)NC1c1cc(OC)ccc1OC` (configuration not stated), the kinetic solubility was found to be 36.5 µg/mL (≈ 108 µM). This solubility kinetic is about 3-fold higher than that of the compound before.

On to `Nc1ccc(Oc2ccc3c(c2)C(=O)N(CC2CCCO2)C3=O)cc1` (configuration not stated), for which the solubility (kinetic) was greater than 50.8 µg/mL.

With `Cl.O=C(CCN1CCN(c2ccccc2F)CC1)c1ccc(Br)cc1`, the kinetic solubility came to 42.3 µg/mL.
